Assay results as given in the NIST ThermoML archive (doi:10.1016/j.fluid.2017.06.024).

Assay: molar heat capacity at constant pressure
Conditions: 100 kPa, Liquid, DSC

CC(C)OC(C)C [diisopropyl ether]
Conditions	molar heat capacity at constant pressure [J/K/mol]
290.5 K	210.58
295.44 K	212.42
300.38 K	214.46
305.32 K	216.51
310.26 K	218.55
315.19 K	220.6
320.13 K	222.64
325.07 K	224.68
330.01 K	226.93
334.95 K	229.08
339.89 K	231.22
